# Earlier results as cited in US20230009337A1, “Liberty Vitamins and Drinks” (priority 2021, published 2023).
# Key:
# TWIK2 potassium channels = target: T1, TWIK2 potassium channels (Homo sapiens, UniProt Q9Y257); conditions: macrophage white blood cell; discovered by Dr. Jalees Rehman and Professor Asrar Malik, University of Illinois in Chicago
# T1 construct: host or cells: macrophage white blood cell (as described in the diagram)
# T1 sequence (Q9Y257 1-313): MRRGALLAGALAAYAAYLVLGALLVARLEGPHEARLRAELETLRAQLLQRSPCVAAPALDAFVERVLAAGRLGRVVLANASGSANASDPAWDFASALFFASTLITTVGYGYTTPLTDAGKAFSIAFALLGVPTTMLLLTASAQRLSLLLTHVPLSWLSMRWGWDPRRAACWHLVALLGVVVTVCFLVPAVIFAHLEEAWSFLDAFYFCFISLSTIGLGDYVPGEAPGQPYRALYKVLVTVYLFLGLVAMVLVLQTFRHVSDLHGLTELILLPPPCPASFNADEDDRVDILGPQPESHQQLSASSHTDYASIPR
# mice = conditions: acetone/olive oil placed on the mice for 4 weeks
compound,measurement,setting,value
C=C[C@H]1C[N@@]2CC[C@H]1C[C@H]2[C@H](O)c1ccnc2ccc(OC)cc12 [Quinine],inhibition of TWIK2 channels,TWIK2 potassium channels,can inhibit
same,loss of skin and flesh (skin inflammation),mice,did not have a loss of skin and flesh
